Reference: patent publication US20240150293A1, “SPIROCYCLOHEXANE DERIVATIVES, PHARMACEUTICAL COMPOSITIONS CONTAINING THEM AND THEIR USES AS ANTI-APOPTOTIC INHIBITORS” (LES LABORATOIRES SERVIER, priority 2021, published 2024)

molecular target: Mcl-1 protein (UniProtKB Q07820) (Homo sapiens (Human), UniProt Q07820); experiment: Inhibition of Mcl-1 by the fluorescence polarisation assay (Example A, Method A); format: binding; details: fluorescence polarization assay
Procedure, shortened: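 Protein (5 nM) and fluorescein-tagged peptide tracer (1 nM) incubated with 11-point compound series for 2 h at room temperature in HEPES/NaCl/Tween 20 buffer, pH 7.4, 5% DMSO. Displacement read as decrease in polarisation; IC50 fitted by 4-parameter logistic, converted to Ki (cKi or eKi).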

Sequence of Mcl-1 protein (Q07820 whole entry): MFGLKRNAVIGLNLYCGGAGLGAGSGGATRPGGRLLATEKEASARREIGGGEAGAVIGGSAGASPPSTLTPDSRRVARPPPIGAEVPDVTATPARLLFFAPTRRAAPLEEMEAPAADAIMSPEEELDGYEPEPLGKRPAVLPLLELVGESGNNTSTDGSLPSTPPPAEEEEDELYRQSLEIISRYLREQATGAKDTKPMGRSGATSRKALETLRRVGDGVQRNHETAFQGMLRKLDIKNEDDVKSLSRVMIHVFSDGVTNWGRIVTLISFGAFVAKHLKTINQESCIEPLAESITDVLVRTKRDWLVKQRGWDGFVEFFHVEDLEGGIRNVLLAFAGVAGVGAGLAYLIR

Point of comparison: `CC[C@H](COc1ccccc1)C[C@H]1Cc2ccccc2[C@]12CC[C@@](Nc1cccc(Cl)c1)(C(=O)O)CC2` [Example 541, (1r,2′S,4S)-4-(3-chloroanilino)-2′-[(2S)-2-(phenoxymethyl)butyl]-2′,3′-dihydrospiro[cyclohexane-1,1′-indene]-4-carboxylic acid], Ki 1170 nM. Against it:
- CCC1=C(C)[C@]2(CC[C@](Nc3cccc(Cl)c3)(C(=O)O)CC2)c2ccccc21 [Example 205, (1r,4r)-4-(3-chloroanilino)-3′-ethyl-2′-methylspiro[cyclohexane-1,1′-indene]-4-carboxylic acid] — within 1.5-fold, 1710 nM
- COc1ccc(C)c(C2Cc3ccccc3[C@]23CC[C@@](Nc2cccc(Cl)c2)(C(=O)O)CC3)c1 (single isomer, unassigned) [Example 271, (1r,4r)-4-(3-chloroanilino)-2′-(5-methoxy-2-methylphenyl)-2′,3′-dihydrospiro[cyclohexane-1,1′-indene]-4-carboxylic acid] — 11-fold higher, 12500 nM
- O=C(O)[C@]1(Nc2cccc(Cl)c2)CC[C@@]2(CC1)c1ccccc1[C@@H]1C[C@@H]12 (single isomer, unassigned) [Example 108, (1r,1′aR*,4r,6′aS*)-4-(3-chloroanilino)-1′a,6′a-dihydro-1′H-spiro[cyclohexane-1,6′-cyclopropa[a]indene]-4-carboxylic acid] — 4.9-fold higher, 5730 nM
- CN(Cc1ccccc1)CC1=Cc2ccccc2[C@]12CC[C@@](Nc1cccc(Cl)c1)(C(=O)O)CC2 [Example 184, (1s,4s)-2′-{[benzyl(methyl)amino]methyl}-4-(3-chloroanilino)spiro[cyclohexane-1,1′-indene]-4-carboxylic acid] — within 1.5-fold, 1230 nM
- O=C(O)[C@]1(Nc2ccccc2)CC[C@]2(CC1)C(CCCOc1ccnc3ccsc13)=Cc1ccccc12 [Example 455, (1r,4r)-4-anilino-2′-{3-[(thieno[3,2-b]pyridin-7-yl)oxy]propyl}spiro[cyclohexane-1,1′-indene]-4-carboxylic acid] — within 1.5-fold, 1030 nM
- O=C(O)[C@]1(Nc2cccc(Cl)c2)CC[C@@]2(CC1)c1ccccc1CC2c1coc2ccccc12 (single isomer, unassigned) [Example 285, (1r,4r)-2′-(1-benzofuran-3-yl)-4-(3-chloroanilino)-2′,3′-dihydrospiro[cyclohexane-1,1′-indene]-4-carboxylic acid] — 4.2-fold higher, 4960 nM
- CN1CC2(CCC(Nc3cccc(Br)c3)(C(=O)O)CC2)c2ccccc21 (stereo not drawn) [Example 4, 4-(3-bromoanilino)-1′-methyl-1′,2′-dihydrospiro[cyclohexane-1,3′-indole]-4-carboxylic acid] — 5.1-fold higher, 5950 nM
- O=c1ccn(CCCC2Cc3ccccc3[C@]23CC[C@@](Nc2cccc(Cl)c2)(C(=O)O)CC3)cc1 (stereo partly drawn) [Example 167, (1r,4r)-4-(3-chloroanilino)-2′-[3-(4-oxopyridin-1 (4H)-yl)propyl]-2′,3′-dihydrospiro[cyclohexane-1,1′-indene]-4-carboxylic acid] — 28-fold higher, 32700 nM
- O=C(O)[C@]1(Nc2cccc(Cl)c2)CC[C@]2(CC1)C(Cc1ccccc1)=Cc1ccccc12 [Example 168, (1r,4r)-2′-benzyl-4-(3-chloroanilino)spiro[cyclohexane-1,1′-indene]-4-carboxylic acid] — within 1.5-fold, 1670 nM
- O=C(O)[C@]1(Nc2cccc(Cl)c2)CC[C@@]2(CC1)c1ccccc1CC2CCCOc1n[nH]c2c1CCCC2 (stereo partly drawn) [Example 433, (1r,4r)-4-(3-chloroanilino)-2′-{3-[(4,5,6,7-tetrahydro-1H-indazol-3-yl)oxy]propyl}-2′,3′-dihydrospiro[cyclohexane-1,1′-indene]-4-carboxylic acid] — within 1.5-fold, 1750 nM
- O=C(O)[C@]1(Nc2cccc(Cl)c2)CC[C@]2(CC1)C(c1ccc(-c3ccccc3)o1)=Cc1ccccc12 [Example 317, (1s,4s)-4-(3-chloroanilino)-2′-(5-phenylfuran-2-yl)spiro[cyclohexane-1,1′-indene]-4-carboxylic acid] — within 1.5-fold, 942 nM
- CC1=Cc2ccccc2[C@]12CC[C@@](Nc1cccc(Cl)c1)(C(=O)O)CC2 [Example 143, (1r,4r)-4-(3-chloroanilino)-2′-methylspiro[cyclohexane-1,1′-indene]-4-carboxylic acid] — 6.4-fold lower, 182 nM
- COc1cccc(N2Cc3ccccc3[C@]23CC[C@](Nc2cccc(Br)c2)(C(=O)O)CC3)c1 [Example 31, (1r,4r)-4-(3-bromoanilino)-2′-(3-methoxyphenyl)-2′,3′-dihydrospiro[cyclohexane-1,1′-isoindole]-4-carboxylic acid] — 31-fold higher, 36300 nM
- Cc1c[nH]c2nccc(OCCCC3Cc4ccccc4[C@]34CC[C@@](Nc3cccc(Cl)c3)(C(=O)O)CC4)c12 (stereo partly drawn) [Example 458, (1r,4r)-4-(3-chloroanilino)-2′-{3-[(3-methyl-1H-pyrrolo[2,3-b]pyridin-4-yl)oxy]propyl}-2′,3′-dihydrospiro[cyclohexane-1,1′-indene]-4-carboxylic acid] — 11-fold lower, 110 nM
- O=C(O)[C@]1(Nc2cccc(Cl)c2)CC[C@]2(CC1)C(C#Cc1ccccn1)=Cc1ccccc12 [Example 170, (1s,4s)-4-(3-chloroanilino)-2′-[(pyridin-2-yl)ethynyl]spiro[cyclohexane-1,1′-indene]-4-carboxylic acid] — 1.6-fold higher, 1920 nM
- O=C(O)C1(Nc2cccc(Cl)c2)CCC2(CC1)c1ccccc1-c1ccccc12 [Example 118, 4-(3-chloroanilino)spiro[cyclohexane-1,9′-fluorene]-4-carboxylic acid] — 3.4-fold higher, 3990 nM
- CCC1=Cc2ccccc2[C@]12CC[C@](Nc1cccc(Br)c1)(C(=O)O)CC2 [Example 146, (1s,4s)-4-(3-bromoanilino)-2′-ethylspiro[cyclohexane-1,1′-indene]-4-carboxylic acid] — 5.9-fold higher, 6920 nM
- O=C(O)[C@]1(Nc2cccc(Cl)c2)CC[C@]2(CC1)C(C1CC(OCc3ccccc3)C1)=Cc1ccccc12 (stereo partly drawn) [Example 97, (1r,4r)-2′-[3-(benzyloxy)cyclobutyl]-4-(3-chloroanilino)spiro[cyclohexane-1,1′-indene]-4-carboxylic acid] — 2-fold lower, 578 nM
- O=C(O)[C@]1(Nc2cccc(Cl)c2)CC[C@@]2(CC1)c1ccccc1CC2c1ccc(Cl)cc1 (single isomer, unassigned) [Example 319, (1r,4r)-4-(3-chloroanilino)-2′-(4-chlorophenyl)-2′,3′-dihydrospiro[cyclohexane-1,1′-indene]-4-carboxylic acid] — within 1.5-fold, 906 nM
- O=C(O)[C@]1(Nc2cccc(Cl)c2)CC[C@@]2(CC1)c1ccccc1CC2c1cccc2c1OCC2 (single isomer, unassigned) [Example 296, (1r,4r)-4-(3-chloroanilino)-2′-(2,3-dihydro-1-benzofuran-7-yl)-2′,3′-dihydrospiro[cyclohexane-1,1′-indene]-4-carboxylic acid] — 3-fold higher, 3460 nM
- O=C(O)[C@]1(Nc2cccc(Cl)c2)CC[C@]2(CC1)C(c1cccc3ccoc13)=Cc1ccccc12 [Example 266, (1s,4s)-2′-(1-benzofuran-7-yl)-4-(3-chloroanilino)spiro[cyclohexane-1,1′-indene]-4-carboxylic acid] — 2-fold lower, 593 nM
- O=C(O)[C@]1(Nc2cccc(Cl)c2)CC[C@@]2(CC1)c1ccccc1CC2CCOCc1ccccc1 (stereo partly drawn) [Example 396, (1r,4r)-2′-[2-(benzyloxy)ethyl]-4-(3-chloroanilino)-2′,3′-dihydrospiro[cyclohexane-1,1′-indene]-4-carboxylic acid] — 3.6-fold lower, 321 nM
- O=C(O)[C@]1(Nc2cccc(Cl)c2)CC[C@@]2(C=Cc3ccccc32)CC1 [Example 64, (1r,4r)-4-(3-chloroanilino)spiro[cyclohexane-1,1′-indene]-4-carboxylic acid] — 1.6-fold lower, 735 nM
